In patent US20100285959A1, “HERBICIDAL MIXTURES” (priority 2006, published 2010):
Values belong to the compound of their own block, whether it stands above or below them.

Columns and labels:
[1] = test system: kochia (KCHSC); test: Test 23 growth chamber, postemergence; type: in vivo, Kochia scoparia; conditions: 21 DAA
Protocol: (§1) A test was conducted to evaluate the effects on winter barley (HORVW, Hordeum vulgare L.), winter wheat (TRZAW, Triticum aestivum L.), and several weed species of mixtures of Compound 2 with the commercial herbicides (2,4-dichlorophenoxy)acetic acid (2,4-D) and (4-chloro-2-methylphenoxy)acetic acid (MCPA), auxin mimics. […] Plants were treated postemergence at the 2-4 leaf growth stage, and each treatment was replicated three times. […] Plants were watered as needed. […] Results are means of the three replicates.

[2] = test system: field violet (VIOAR); test: Test 23 growth chamber, postemergence; type: in vivo, Viola arvensis; conditions: 21 DAA
Protocol: as §1

[3] = test system: common chickweed (STEME); test: Test 21 growth chamber, postemergence; type: in vivo, Stellaria media; conditions: 19 DAA
Protocol: as §1, with “species,” for “species”, “herbicide” for “herbicides”, “(2,4-D), an” for “(2,4-D) and (4-chloro-2-methylphenoxy)acetic acid (MCPA),”, “mimic.” for “mimics.”, “one time.” for “three times.”, “from single” for “means of the three”

[4] = test system: slender amaranth (AMAVI); test: Test 12 field trial, preemergence; type: in vivo, Amaranthus viridis; design: scale not given here; conditions: Cpd 2 or Cpd 1 62 g a.i./ha, Diuron 2000 g a.i./ha
Source text: (§2) In early-mid spring season, corn seeds (hybrid ‘Pioneer 3041’) were planted 5 cm deep and sugarcane nodes (variety RB-72.454) were planted 10 cm deep in separate plots in a clay soil having 2.6% organic matter and a pH of 5.6. Plots were 24 m long by 1.5 m wide with rows spaced 80 cm (corn) or 140 cm (sugarcane) apart. Corn seeds were spaced 15 cm apart and sugarcane nodes were spaced 10 cm apart within the rows. At the same time, weed seeds were broadcast over the surface of separate plots without a crop, one weed species per plot. The weed plots were rotary tilled to incorporate the weed seeds to a variety of depths. The field was managed using conventional tillage practices.

[5] = test system: wild poinsettia (EPHHL); test: Test 12 field trial, preemergence; type: in vivo, Euphorbia heterophylla; design: scale not given here; conditions: Cpd 2 or Cpd 1 62 g a.i./ha, Diuron 2000 g a.i./ha
Source text: as §2

[6] = test system: sicklepod (CASOB); test: Test 12 field trial, preemergence; type: in vivo, Cassia obtusifolia; design: scale not given here; conditions: Cpd 2 or Cpd 1 62 g a.i./ha, Diuron 2000 g a.i./ha
Source text: as §2

[7] = test system: wheat (TRZAW); test: Test 30 growth chamber, postemergence; type: in vivo, Triticum aestivum
Protocol: A growth chamber test was conducted to evaluate the effects on the plant species wheat (TRZAW, Triticum aestivum L.) and barley (HORVX, Hordeum vulgare L.) with mixtures of Compound 1 and Compound 2 with glycerol. Wheat and barley seeds were planted in a sandy loam soil having 0.9% organic matter and a pH of 6.3. […] Wheat and barley plants were treated postemergence at the two leaf growth stage for Compound 1 and at the three leaf growth stage for Compound 2. Each treatment was replicated one time. […] Plants were watered as needed. […] Colby's Equation was used to determine herbicidal effects expected from the mixtures.

[8] = test system: jimsonweed (DATST); test: Test 14 field trial, preemergence, growth as percent of control; type: in vivo, Datura stramonium
Source text: Corn seeds (hybrid ‘Pioneer 31G96 RR’) were planted in mid spring season, 3.8 cm deep in a clay loam soil having 2% organic matter and a pH of 6.6. Plots were 6.1 m long by 3.0 m wide with rows spaced 76 cm apart. Seeds were spaced 15 cm apart within the rows. The field was managed using conventional tillage practices. […] Yellow nutsedge was only evaluated 19 and 28 days after application, and ivyleaf morningglory could only be evaluated 28 days after application. […] Results are the means of the three replicates. This growth inhibition data was converted to results in the form of “plant growth as a percent of control plant growth” using the calculation “100 minus growth inhibition”. […] For “growth as a percent of control” data, Colby's Equation calculates the expected additive effect of herbicidal mixtures having two active ingredients as follows:
Ga+b=GaGb/100 • wherein Ga+b is the growth as a percent of control of plants treated with the mixture expected from additive contribution of the individual components, • Ga is the observed growth as a percent of control of plants treated with the first active ingredient at the same use rate as in the mixture, and • Gb is the observed growth as a percent of control of plants treated with the second active ingredient at the same use rate as in the mixture. For mixtures having three active ingredients, Colby's Equation to calculate the expected additive effect of herbicidal mixtures is as follows:
Ga+b+c=GaGbGc/10,000 • wherein Ga and Gb are as defined above and • Ga+b+c is the growth as a percent of control of plants treated with the mixture expected from additive contribution of the individual components, and • Gc is the observed growth as a percent of control of plants treated with the third active ingredient at the same use rate as in the mixture. When these two forms of Colby's Equation are used, if the observed effects on weeds are less than the expected values, the mixture is synergistic.

[9] = test system: redroot pigweed (AMARE); test: Test 7 field trial, preemergence; type: in vivo, Amaranthus retroflexus
Protocol: (§3) Plots were 7.6 m long by 3.0 m wide with rows spaced 76 cm apart. Seeds were spaced 15 cm apart within the rows. The field was managed using conventional tillage practices. […] Wild radish was evaluated 14 and 28 days after application. […] Results are the means of the three replicates.

[10] = test system: morningglory (IPOSS); test: Test 7 field trial, preemergence; type: in vivo, Ipomoea L. spp.
Protocol: as §3

[11] = 2,4-D or MCPA alone 250 g a.i./ha

Structure (SMILES): O=C(O)COc1ccc(Cl)cc1Cl [2,4-D, (2,4-dichlorophenoxy)acetic acid]
Postemergence KCHSC Obs [1, 11]: 70 | Postemergence VIOAR Obs [2, 11]: 63 | Postemergence STEME Obs ([3]; 2,4-D alone 125 g a.i./ha): 50 | Postemergence STEME Obs ([3]; 2,4-D alone 250 g a.i./ha): 50

TRZAW Obs ([7]; 18 DAA, Cpd 1 1 g a.i./ha): 30% | TRZAW Obs ([7]; 18 DAA, Cpd 1 4 g a.i./ha): 35% | TRZAW Obs ([7]; 18 DAA, Cpd 1 16 g a.i./ha): 45%
Structure (SMILES): Nc1nc(C2CC2)nc(C(=O)O)c1Cl [Compound 1, 6-amino-5-chloro-2-cyclopropyl-4-pyrimidinecarboxylic acid]
AMAVI Obs ([4]; 15 DAA): 90 | AMAVI Obs ([4]; 29 DAA): 60 | AMAVI Obs ([4]; 48 DAA): 40 | AMAVI Obs ([4]; 61 DAA): 40 | EPHHL Obs ([5]; 15 DAA): 40 | EPHHL Obs ([5]; 29 DAA): 70 | EPHHL Obs ([5]; 48 DAA): 50 | EPHHL Obs ([5]; 61 DAA): 40 | CASOB Obs ([6]; 15 DAA): 60 | CASOB Obs ([6]; 29 DAA): 70 | CASOB Obs ([6]; 48 DAA): 90 | CASOB Obs ([6]; 61 DAA): 90

Structure (SMILES): COC(=O)c1nc(C2CC2)nc(N)c1Cl [Compound 2, methyl 6-amino-5-chloro-2-cyclopropyl-4-pyrimidinecarboxylate]
Obs growth % of control ([8]; 19 DAA, 75 g a.i./ha): 93% | Obs growth % of control ([8]; 19 DAA, 100 g a.i./ha): 73% | Obs growth % of control ([8]; 28 DAA, 75 g a.i./ha): 32% | Obs growth % of control ([8]; 28 DAA, 100 g a.i./ha): 30% | Obs growth % of control ([8]; 56 DAA, 75 g a.i./ha): 0% | Obs growth % of control ([8]; 56 DAA, 100 g a.i./ha): 5% | AMARE Obs ([9]; 14 DAA, 125 g a.i./ha): 97% | AMARE Obs ([9]; 14 DAA, 250 g a.i./ha): 100% | AMARE Obs ([9]; 14 DAA, 500 g a.i./ha): 100% | AMARE Obs ([9]; 28 DAA, 125 g a.i./ha): 92% | AMARE Obs ([9]; 28 DAA, 250 g a.i./ha): 100% | AMARE Obs ([9]; 28 DAA, 500 g a.i./ha): 100% | AMARE Obs ([9]; 62 DAA, 125 g a.i./ha): 80% | AMARE Obs ([9]; 62 DAA, 500 g a.i./ha): 100% | IPOSS Obs ([10]; 14 DAA, 125 g a.i./ha): 100% | IPOSS Obs ([10]; 14 DAA, 250 g a.i./ha): 100% | IPOSS Obs ([10]; 14 DAA, 500 g a.i./ha): 100% | IPOSS Obs ([10]; 28 DAA, 125 g a.i./ha): 100% | IPOSS Obs ([10]; 28 DAA, 250 g a.i./ha): 100% | IPOSS Obs ([10]; 28 DAA, 500 g a.i./ha): 100% | IPOSS Obs ([10]; 62 DAA, 125 g a.i./ha): 100% | IPOSS Obs ([10]; 62 DAA, 500 g a.i./ha): 100% | AMAVI Obs ([4]; 15 DAA): 90 | AMAVI Obs ([4]; 29 DAA): 60 | AMAVI Obs ([4]; 48 DAA): 40 | AMAVI Obs ([4]; 61 DAA): 0 | EPHHL Obs ([5]; 15 DAA): 40 | EPHHL Obs ([5]; 29 DAA): 60 | EPHHL Obs ([5]; 48 DAA): 40 | EPHHL Obs ([5]; 61 DAA): 40 | Postemergence KCHSC Obs ([1]; Cpd 2 alone 4 g a.i./ha): 53 | Postemergence KCHSC Obs ([1]; Cpd 2 alone 8 g a.i./ha): 60 | Postemergence KCHSC Obs ([1]; Cpd 2 alone 16 g a.i./ha): 70 | Postemergence VIOAR Obs ([2]; Cpd 2 alone 4 g a.i./ha): 60 | Postemergence VIOAR Obs ([2]; Cpd 2 alone 8 g a.i./ha): 63 | Postemergence VIOAR Obs ([2]; Cpd 2 alone 16 g a.i./ha): 72 | CASOB Obs ([6]; 15 DAA): 60 | CASOB Obs ([6]; 29 DAA): 80 | CASOB Obs ([6]; 48 DAA): 60 | CASOB Obs ([6]; 61 DAA): 50 | Postemergence STEME Obs ([3]; Cpd 2 alone 16 g a.i./ha): 65 | TRZAW Obs ([7]; 17 DAA, Cpd 2 1 g a.i./ha): 20% | TRZAW Obs ([7]; 17 DAA, Cpd 2 4 g a.i./ha): 20% | TRZAW Obs ([7]; 17 DAA, Cpd 2 16 g a.i./ha): 35%

Structure (SMILES): CCc1cccc(C)c1N(C(=O)CCl)[C@@H](C)COC [S-Metolachlor, S-metolachlor, reference compound]
Obs growth % of control ([8]; 19 DAA, 1870 g a.i./ha): 100% | Obs growth % of control ([8]; 28 DAA, 1870 g a.i./ha): 22% | Obs growth % of control ([8]; 56 DAA, 1870 g a.i./ha): 30% | AMARE Obs ([9]; 14 DAA, 1000 g a.i./ha): 97% | AMARE Obs ([9]; 28 DAA, 1000 g a.i./ha): 78% | AMARE Obs ([9]; 62 DAA, 1000 g a.i./ha): 15% | IPOSS Obs ([10]; 14 DAA, 1000 g a.i./ha): 48% | IPOSS Obs ([10]; 28 DAA, 1000 g a.i./ha): 50% | IPOSS Obs ([10]; 62 DAA, 1000 g a.i./ha): 13%
